Source: patent US7217527B2, “Assay for phosphodiesterase function” (Vanderbilt University, priority 2003, dated 2007)

Assays:
crude human lung extract = target: T1, crude human lung extract (Homo sapiens, UniProt O76074); test: [^3H]sildenafil binding in DEAE-Sephacel fractions of crude human lung extract (FIG. 5); conditions: 16 nM [^3H]sildenafil
T1 construct: from tissue; host or cells: human lung (explanted lung of transplant patients), supernatant fractionated on DEAE-Sephacel
Method: 5 g human lung was thawed, cut into small pieces and homogenized in 80 ml 2.5 mM potassium phosphate (pH 6.8) containing 0.25 mM EDTA, 0.025 mM IBMX, 4 mM β-mercaptoethanol, and 1 mM CaCl2 with a Cuisinart apparatus (high speed) using 3 bursts of 15 sec each at 4° C. After centrifugation in a Beckman JA-20 rotor for 30 min at 10,000×g, 72 ml supernatant was applied to a DEAE-Sephacel column (0.9×10 cm) equilibrated in KPM and the column was washed with 20 ml of KPM containing 20 mM NaCl and 1 mM CaCl2. The column was developed with a linear (20–280 mM) NaCl gradient in KPM containing 1 mM CaCl2. […] PKG activity was determined in the presence of 2 μM cGMP as described in Materials and Methods.

[1] = target: T2, isolated regulatory domain of PDE5 (Homo sapiens, UniProt O76074); type: binding
T2 construct: made in house
Method: Reactions were incubated on an ice water bath for 20 min. […] Tubes were each rinsed with 3 ml of the same buffer and filtered. The filter membranes were removed and placed into slots of a scintillation vial box for subsequent drying. The vial box was placed into a glassware dryer for 10 min, and dried papers were transferred to 6 ml scintillation vials. Five ml non-aqueous scintillant was added, and papers were counted in a scintillation counter.

GAF domains of PDE5 = GAF domains of PDE5 (Homo sapiens, UniProt O76074); conditions: cited from earlier work
PDE5 = PDE5 (Homo sapiens, UniProt O76074); conditions: read-out: Km for the catalytic site; cited from earlier work
[2] = system: second peak of cGMP PDE activity (human lung extract); conditions: 40 pmol/ml sildenafil; 0.4 μM [^3H]cGMP substrate
Method: PKG activity was determined in the presence of 2 μM cGMP as described in Materials and Methods.
PDE activity was determined by a modified assay (Martins et al., 1982) as described earlier (Gopal et al., 2001) using 0.4 μM [^3H]cGMP as substrate. PKG activity was determined in the presence of 2 μM cGMP as described (Gopal et al., 2001).

For `CCCc1nn(C)c2c(=O)[nH]c(-c3cc(S(=O)(=O)N4CCN(C)CC4)ccc3OCC)nc12` [[^3H]sildenafil], the “[^3H]sildenafil-binding activity other than the PDE5 peak” value (crude human lung extract) was “no other significant peak” and the “binding to isolated regulatory domain of PDE5” value [1] was “did not detectably bind”.
For `Nc1nc2c(ncn2[C@@H]2O[C@@H]3COP(=O)(O)O[C@H]3[C@H]2O)c(=O)[nH]1` [cGMP], the Kd (GAF domains of PDE5) is given as 200 nM and the Km (PDE5) is given as 5 µM.
In the case of `CCCc1nn(C)c2c(=O)[nH]c(-c3cc(S(=O)(=O)N4CCN(C)CC4)ccc3OCC)nc12` [sildenafil], the “competition with [^3H]cGMP for binding to the GAF domains of PDE5” value (GAF domains of PDE5; even at high concentrations (Turko et al., 1999)) is listed as “does not compete” and the “inhibition of second peak of cGMP PDE activity” value [2] is listed as “not inhibited”.
